From patent US10513519B2, “Solid forms of (1S,4S)-4-(2-(((3S,4R)-3-fluorotetrahydro-2H-pyran-4-yl)amino)-8-((2,4,6-trichlorophenyl)amino)-9H-purin-9-yl)-1-methylcyclohexane-1-carboxamide and methods of their use” (Signal Pharmaceuticals, LLC, priority 2016, dated 2019)

Tested on: cancer cell lines
Experiment: Multiplexed cytotoxicity assay: cell proliferation (relative cell count IC50, GI50)
Format: cell-based
Conditions: Homo sapiens
Experimental: (§1) Cells are grown in RPMI1640, 10% FBS, 2 mM L-alanyl-L-Glutamine, 1 mM Na pyruvate or a special medium in a humidified atmosphere of 5% CO2 at 37° C. Cells are seeded into 384-well plates and incubated in a humidified atmosphere of 5% CO2 at 37° C. Compounds are added 24 h post cell seeding. At the same time, a time zero untreated cell plate is generated. After a 72 hour incubation period, cells are fixed and stained with fluorescently labeled antibodies and nuclear dye to allow visualization of nuclei, apoptotic cells and mitotic cells. Apoptotic cells are detected using an anti-active caspase-3 antibody. Mitotic cells are detected using an anti phospho-histone-3 antibody. Compounds are serially diluted 3.16-fold and assayed over 10 concentrations in a final assay concentration of 0.1% DMSO from the highest test concentration of 10 μM. Automated fluorescence microscopy was carried out using a Molecular Devices ImageXpress Micro XL high-content imager, and images are collected with a 4× objective.
(§2) Sixteen-bit TIFF images are acquired and analyzed with MetaXpress 5.1.0.41 software. Cell proliferation is measured by the signal intensity of the incorporated nuclear dye. The cell proliferation assay output is referred to as the relative cell count. To determine the cell proliferation end point, the cell proliferation data output is transformed to percentage of control (POC) using the following formula: POC=relative cell count(compound wells)/relative cell count(vehicle wells)×100
(§3) GI50 is the concentration needed to reduce the observed growth by half. This is the concentration that inhibits the growth to the level midway between growth in untreated cells and the number of cells seeded in the well (Time zero value). The IC50 values are calculated using nonlinear regression to fit data to a sigmoidal 4 point, 4 parameter One-Site dose response model, where: y(fit)=A+[(B−A)/(1+((C/x)^D))].
as §1, with “In another experiment, cells were grown” for “Cells are grown”, “Cells were” for “Cells are”, “Compounds were” for “Compounds are”, “plate was” for “plate is”, “cells were” for “cells are”, “images were” for “images are”
as §2, with “images were” for “images are”, “proliferation was” for “proliferation is”, “output was” for “output is”
as §3, with “GI50 refers to” for “GI50 is”, “This corresponds to” for “This is”, “values were” for “values are”

[1] = BV-173, BV173 (Hematopoietic and lymphoid, Leukemia)
[2] = BXPC-3, 72 h, BXPC3, Pancreas, 72 h
[3] = BeWo, 72 h, Female GU, Placenta
[4] = C-4-II, C4II (Female GU, Cervix)
[5] = C-33-A, C33A (Female GU, Cervix)
[6] = CA46, CA46 (Hematopoietic and lymphoid, Lymphoma)
[7] = CAL-62, 72 h, CAL62, Endocrine, Thyroid, 72 h
[8] = CAPAN-1, 72 h, CAPAN1, Pancreas, 72 h
[9] = CCF-STTG1, CCFSTTG1 (CNS, Glioma)
[10] = CCRF-CEM, CCRFCEM (Hematopoietic and lymphoid, Leukemia)
[11] = CFPAC-1, 72 h, CFPAC1, Pancreas, 72 h
[12] = CGTH-W-1, 72 h, CGTHW1, Endocrine, Thyroid, 72 h
[13] = CHP-212, 72 h, CHP212, CNS, Neuroblastoma, 72 h
[14] = COLO-320-HSR, COLO320HSR (Colon)
[15] = COLO-829, COLO829 (Skin, Melanoma)
[16] = COR-L23, 72 h, CORL23, Lung, NSCLC, 72 h
[17] = COR-L105, 72 h, CORL105, Lung, NSCLC, 72 h
[18] = CRO-AP2, CROAP2 (Hematopoietic and lymphoid, Lymphoma)
[19] = Ca-Ski, 72 h, CASKI, Female GU, Ovary
[20] = Calu-1, 72 h, CALU1, Lung, NSCLC, 72 h
[21] = Calu-6, 72 h, CALU6, Lung, NSCLC, 72 h
[22] = Caov-3, 72 h, CAOV3, Female GU, Ovary, 72 h
[23] = Capan-2, 72 h, CAPAN2, Pancreas, 72 h
[24] = ChaGo-K-1, 72 h, CHAGOK1, Lung, NSCLC, 72 h
[25] = D283 Med, D283MED (CNS, Medulloblastoma)
[26] = DBTRG-05MG, DBTRG05MG (CNS, Glioma)
[27] = DMS-53, 72 h, DMS53, Lung, SCLC, 72 h
[28] = DMS-114, 72 h, DMS114, Lung, SCLC, 72 h
[29] = DMS-273, 72 h, DMS273, Lung, SCLC, 72 h
[30] = DOHH-2, DOHH2 (Hematopoietic and lymphoid, Lymphoma)
[31] = DU-145, 72 h, DU145, Prostate, 72 h
[32] = Daoy, DAOY (CNS, Medulloblastoma)
[33] = Daudi, DAUDI (Hematopoietic and lymphoid, Lymphoma)
[34] = Detroit 562, DETROIT562 (Head and Neck)
[35] = DoTc2-4510, DOTC24510 (Female GU, Cervix)
[36] = GA-10, GA10 (Hematopoietic and lymphoid, Lymphoma)
[37] = HEC-1-A, 72 h, HEC1A, Female GU, Uterus
[38] = HEL 92.1.7, HEL9217 (Hematopoietic and lymphoid, Leukemia)
[39] = HPAF-II, 72 h, HPAFII, Pancreas
[40] = HT-1080, 72 h, HT1080, Soft Tissue, Sarcoma, 72 h
[41] = Hs 294T, HS294T (Skin, Melanoma)
[42] = Hs 695T, HS695T (Skin, Melanoma)
[43] = HuP-T4, 72 h, HUPT4, Pancreas, 72 h
[44] = J-RT3-T3-5, JRT3T35 (Hematopoietic and lymphoid, Leukemia)
[45] = JEG-3, 72 h, JEG3, Female GU, Placenta, 72 h

C[C@]1(C(N)=O)CC[C@@H](n2c(Nc3c(Cl)cc(Cl)cc3Cl)nc3cnc(N[C@@H]4CCOC[C@H]4F)nc32)CC1 [Compound 1, cis-4-[2-{[(3S,4R)-3-fluorooxan-4-yl]amino}-8-(2,4,6-trichloroanilino)-9H-purin-9-yl]-1-methylcyclohexane-1-carboxamide]
GI50 (BT-474, BT474 (Breast)): > 10000 nM | IC50 (BT-474, BT474 (Breast)): > 10000 nM | GI50 (BT-549, BT549 (Breast)): > 10000 nM | IC50 (BT-549, BT549 (Breast)): > 10000 nM | GI50 [1]: 1100 nM | IC50 [1]: > 10000 nM | GI50 [2]: 36.9 nM | IC50 [2]: 45.5 nM | GI50 [3]: 5160 nM | IC50 [3]: 5690 nM | GI50 [4]: > 10000 nM | IC50 [4]: > 10000 nM | GI50 [5]: 191 nM | IC50 [5]: 407 nM | GI50 [6]: 14.6 nM | IC50 [6]: 21.3 nM | GI50 (CAKI-1, CAKI1 (Kidney)): 91.4 nM | IC50 (CAKI-1, CAKI1 (Kidney)): 151 nM | GI50 (CAKI-2, CAKI2 (Kidney)): 139 nM | IC50 (CAKI-2, CAKI2 (Kidney)): 193 nM | GI50 (CAL-27, CAL27 (Head and Neck)): 59.2 nM | IC50 (CAL-27, CAL27 (Head and Neck)): 66.1 nM | GI50 [7]: 83.6 nM | IC50 [7]: 93.6 nM | GI50 (CAMA-1, CAMA1 (Breast)): 298 nM | IC50 (CAMA-1, CAMA1 (Breast)): 2240 nM | GI50 [8]: 105 nM | IC50 [8]: > 10000 nM | GI50 [9]: > 10000 nM | IC50 [9]: > 10000 nM | GI50 [10]: 5030 nM | IC50 [10]: 6050 nM | GI50 [11]: > 10000 nM | IC50 [11]: > 10000 nM | GI50 [12]: 54.7 nM | IC50 [12]: 60.5 nM | GI50 (CHL-1, CHL1 (Skin, Melanoma)): 103 nM | IC50 (CHL-1, CHL1 (Skin, Melanoma)): 117 nM | GI50 [13]: 6.6 nM | IC50 [13]: 16.5 nM | GI50 (COLO 201, COLO201 (Colon)): 12.8 nM | IC50 (COLO 201, COLO201 (Colon)): 17.2 nM | GI50 (COLO 205, COLO205 (Colon)): 9.5 nM | IC50 (COLO 205, COLO205 (Colon)): 11.7 nM | GI50 (COLO 320DM, COLO320DM (Colon)): 9110 nM | IC50 (COLO 320DM, COLO320DM (Colon)): > 10000 nM | GI50 [14]: 4190 nM | IC50 [14]: 4440 nM | GI50 [15]: 12.1 nM | IC50 [15]: 34.3 nM | GI50 [16]: 23.8 nM | IC50 [16]: 28.3 nM | GI50 [17]: 16.5 nM | IC50 [17]: 41.4 nM | GI50 [18]: 996 nM | IC50 [18]: 2580 nM | GI50 [19]: 6760 nM | IC50 [19]: > 10000 nM | GI50 [20]: 96.7 nM | IC50 [20]: 149 nM | GI50 [21]: 46.3 nM | IC50 [21]: 83 nM | GI50 [22]: 429 nM | IC50 [22]: > 10000 nM | GI50 [23]: 136 nM | IC50 [23]: 291 nM | GI50 [24]: > 10000 nM | IC50 [24]: > 10000 nM | GI50 [25]: 2560 nM | IC50 [25]: 7550 nM | GI50 [26]: 43.2 nM | IC50 [26]: 98.4 nM | GI50 (DLD-1, DLD1 (Colon)): 162 nM | IC50 (DLD-1, DLD1 (Colon)): 197 nM | GI50 [27]: 998 nM | IC50 [27]: > 10000 nM | GI50 [28]: 68.8 nM | IC50 [28]: 600 nM | GI50 [29]: 5960 nM | IC50 [29]: 6790 nM | GI50 [30]: 5540 nM | IC50 [30]: 5790 nM | GI50 [31]: 73.8 nM | IC50 [31]: 96.5 nM | GI50 [32]: 749 nM | IC50 [32]: 1090 nM | GI50 [33]: 17.7 nM | IC50 [33]: > 10000 nM | GI50 [34]: 347 nM | IC50 [34]: > 10000 nM | GI50 [35]: 40 nM | IC50 [35]: 132 nM | GI50 (EFM-19, EFM19 (Breast)): 4200 nM | IC50 (EFM-19, EFM19 (Breast)): > 10000 nM | GI50 (FaDu, FADU (Head and Neck)): 435 nM | IC50 (FaDu, FADU (Head and Neck)): 787 nM | GI50 (G-361, G361 (Skin, Melanoma)): 102 nM | IC50 (G-361, G361 (Skin, Melanoma)): 150 nM | GI50 (G-401, G401 (Kidney)): 77.4 nM | IC50 (G-401, G401 (Kidney)): 86 nM | GI50 (G-402, G402 (Kidney)): 50.4 nM | IC50 (G-402, G402 (Kidney)): 92.5 nM | GI50 [36]: 46.8 nM | IC50 [36]: 56.7 nM | GI50 (HCT-15, HCT15 (Colon)): 1970 nM | IC50 (HCT-15, HCT15 (Colon)): 2230 nM | GI50 (HCT-116, HCT116 (Colon)): 19.4 nM | IC50 (HCT-116, HCT116 (Colon)): 20.4 nM | GI50 [37]: 1800 nM | IC50 [37]: 2810 nM | GI50 [38]: 4620 nM | IC50 [38]: 8230 nM | GI50 (HMCB, HMCB (Skin, Melanoma)): 72.4 nM | IC50 (HMCB, HMCB (Skin, Melanoma)): 113 nM | GI50 [39]: 13 nM | IC50 [39]: 17.5 nM | GI50 (HRT-18, HRT18 (Colon)): 77.5 nM | IC50 (HRT-18, HRT18 (Colon)): 81.9 nM | GI50 (HT1197, HT1197 (Bladder)): 444 nM | IC50 (HT1197, HT1197 (Bladder)): > 10000 nM | GI50 (HT-29, HT29 (Colon)): 12.9 nM | IC50 (HT-29, HT29 (Colon)): 16.7 nM | GI50 [40]: 64.8 nM | IC50 [40]: 72.7 nM | GI50 (HT-1376, HT1376 (Bladder)): 792 nM | IC50 (HT-1376, HT1376 (Bladder)): 3480 nM | GI50 (HeLa, HELA (Female GU, Cervix)): 6750 nM | IC50 (HeLa, HELA (Female GU, Cervix)): 8710 nM | GI50 (HepG2, HEPG2 (Liver)): 22.4 nM | IC50 (HepG2, HEPG2 (Liver)): 64.3 nM | GI50 [41]: 50.7 nM | IC50 [41]: 70.6 nM | GI50 (Hs 683, HS683 (CNS, Glioma)): 148 nM | IC50 (Hs 683, HS683 (CNS, Glioma)): 305 nM | GI50 [42]: 36.3 nM | IC50 [42]: 160 nM | GI50 (Hs746T, 72 h, Stomach): 39.6 nM | IC50 (Hs746T, 72 h, Stomach): 122 nM | GI50 (Hs-578T, HS578T (Breast)): 153 nM | IC50 (Hs-578T, HS578T (Breast)): 837 nM | GI50 (HuCCT-1, HUCCT1 (Liver)): 53.7 nM | IC50 (HuCCT-1, HUCCT1 (Liver)): 63.3 nM | GI50 [43]: 43.4 nM | IC50 [43]: 50.5 nM | GI50 (HuTu80, HUTU80 (Duodenum)): 57 nM | IC50 (HuTu80, HUTU80 (Duodenum)): 69.5 nM | GI50 [44]: 3580 nM | IC50 [44]: 4780 nM | GI50 [45]: 6340 nM | IC50 [45]: 7750 nM
